Laboratory results as given in patent US10494341B2, “Compound containing indoleacetic acid core structure and use thereof” (Beijing An Jian Xi Bio-Medical Technology Co., Ltd., priority 2015, dated 2019).

Legend:
[1] = Degradation of the compound in plasma (10% bovine serum medium, HPLC); type: in vitro ADME; details: 10 μM, 37° C., within 24 hours
Protocol: Determination of the stability of the compound: (1) degradation of the compound in plasma: Compound a (10 μM) dissolved in DMSO was cultured with 10% bovine serum medium (5 mL) at 37° C. 200 μL of medium was collected at the time points of 1, 3, 6, 12 and 24 hours, respectively, added with equal volume of acetonitrile for reaction, and subjected to high speed centrifugation (13,000 rpm) for 5 minutes. The level of degradation of the compound was determined by HPLC. (2) Degradation of the compound in cells: the compound a dissolved in DMSO was added at a final concentration of 10 μM to a 6-well culture dish containing SW480 cells and incubated in carbon dioxide incubator. The cells were collected at the time points of 1, 3, 6, 12, and 24 hours, respectively, washed fully, then extracted with 0.5 mL of acetonitrile, and centrifuged at high speed (12,000 rpm) for 5 minutes. The level of degradation of the compound in the organic phase was determined by HPLC.

[2] = tested on: colon cancer cells (SW480); details: SW480 tumors in nude mice
Protocol: The experiment was carried out using compound a in this example. Under sterile conditions, a suspension of colon cancer cells (SW480) in logarithmic growth phase (cell concentration was adjusted to 1×10^7/mL with physiological saline) was inoculated subcutaneously to 5 to 6 weeks old balb/c female nude mice on the right rear back, and each nude mice was inoculated at an amount of 0.3 ml, i.e. the number of cells contained was 3×10^6 per each mouse. 10 days later, subcutaneous transplanted tumor of 100-250 mm^3 appeared. The nude mice with tumor were randomly divided into several groups, each containing 6 mice: (1) control group; (2) doxorubicin group; (3) doxorubicin+amifostine; (4) doxorubicin+Celecoxib+intermediate II; (5) doxorubicin+intermediate I+intermediate II; (6) doxorubicin+low-dose compound a (6 mg/kg/day); (7) doxorubicin+high-dose compound a (15 mg/kg/day). Firstly, the following compounds were administered to each group of nude mice with tumor according to the following doses: intermediate I and intermediate II (3 mg/kg/day respectively), amifostine (400 mg/kg/day), Celecoxib (6 mg/kg/day). Except that amifostine was subcutaneously injected (30 minutes before irradiation), the other protective agents were administered by gavage. The above drugs were administered every day for 5 weeks continuously. 12 hours after the administration, doxorubicin (2.5 mg/kg) was injected intraperitoneally, and it was administered once every 2 days for 5 weeks. During the dosing period, the body weight of the nude mice was measured every two days with a precision electronic balance. The growth of the tumor and whether or not red and swelling and rupture occur were observed every day after inoculation. After tumor formation, the surface morphology and activity of the transplanted tumor were examined, and the longest diameter (a) and the shortest diameter (b) of the tumor nodules were measured every 3 days with a vernier caliper. […] 21 days after administration of doxorubicin, the tail vein blood of mice was collected to perform leukocyte count and blood biochemical index analysis. The tumor tissue and normal peripheral tissues were taken on the last day of treatment, and the content of the intermediate I therein was measured by HPLC (FIG. 9a). At the same time, paraffin sections were made, the occurrence of apoptosis was detected by terminal labeling (FIG. 9b), and the relative survival percentages of normal tissue and tumor tissue were calculated (the results are summarized in FIG. 9b).

[3] = Content of active components in tumor tissue and normal peripheral tissue (HPLC); type: in vivo; details: last day of treatment
Protocol: The experiment was carried out using compound a in this example. Under sterile conditions, a suspension of colon cancer cells (SW480) in logarithmic growth phase (cell concentration was adjusted to 1×10^7/mL with physiological saline) was inoculated subcutaneously to 5 to 6 weeks old balb/c female nude mice on the right rear back, and each nude mice was inoculated at an amount of 0.3 ml, i.e. the number of cells contained was 3×10^6 per each mouse. 10 days later, subcutaneous transplanted tumor of 100-250 mm^3 appeared. […] During the dosing period, the body weight of the nude mice was measured every two days with a precision electronic balance. […] After tumor formation, the surface morphology and activity of the transplanted tumor were examined, and the longest diameter (a) and the shortest diameter (b) of the tumor nodules were measured every 3 days with a vernier caliper. […] The tumor tissue and normal peripheral tissues were taken on the last day of treatment, and the content of the intermediate I therein was measured by HPLC (FIG. 9a). At the same time, paraffin sections were made, the occurrence of apoptosis was detected by terminal labeling (FIG. 9b), and the relative survival percentages of normal tissue and tumor tissue were calculated (the results are summarized in FIG. 9b).

[4] = tested on: mouse colon cancer cells (MCA-38); assay: Killing effect of cisplatin on tumor cells with compound (LDH); type: cell-based; details: MCA-38, 10, 30 and 90 μM, 24 hours
Protocol: (§1) The mechanism of compounds enhancing killing effect of chemotherapeutic agents on tumor cells while protecting normal cells: mouse colon cancer cells (MCA-38) and primarily-cultured normal mouse intestinal mucosa cells were cultured in a 96-well plate, respectively. 24 hours later, various concentrations (10, 30 and 90 μM) of compound b was respectively added to the cell culture medium, and incubated for 24 hours. LDH was used to detect the damage of the cells, and the cells were collected and extracted for protein. The expression levels of adenosine triphosphate-binding transporter (ABCG2) and the cell cycle-dependent protein […] (p21) were detected by immunoblotting (performed according to the instructions provided by the manufacturer). […] ABCG2 is a transporter, and can pump anticancer drugs out of the cells. […] The high expression of p21 allows the cells to be in non-dividing quiescent phase, so that cells are not sensitive to chemotherapeutic drugs or injury in other forms. The compounds of the present invention make these proteins expressed differentially in normal tissues and tumor tissues, which is one of the reasons for selectively protecting normal tissues and enhancing the sensitivity of tumors to treatment.

[5] = tested on: normal mouse intestinal mucosa cells; assay: Cisplatin damage of normal cells with compound (LDH); type: cell-based; details: all tested concentrations except the high concentration, 24 hours
Protocol: as §1

SMILES	compound hydrolyzed in bovine serum [1]	effect on tumor / on sensitivity of tumor to doxorubicin ([2]; doxorubicin 2.5 mg/kg i.p. every 2 days for 5 weeks, agents daily)	death of animals during treatment ([2]; doxorubicin 2.5 mg/kg i.p., 6 mice per group)	protection of normal tissue and cells from doxorubicin ([2]; with doxorubicin)	content of active components in tumor tissues versus peripheral normal tissues [3]	killing effect of cisplatin on colon cancer cells [4]	cisplatin damage of normal intestinal mucosa cells [5]
COC1=C(OC)C(=O)C(CCCCCCCCCCOC(=O)Cc2c(C)n(C(=O)c3ccc(Cl)cc3)c3cc(OC)ccc23)=C(C)C1=O [compound a]	11%	significantly enhance the sensitivity of tumor cells to chemotherapy	No death occurs	effective in inhibiting the killing effect of Doxorubicin on normal leukocytes, cardiomyocytes and peripheral normal tissues around the tumor	evidently higher		
COc1ccc2c(CC(=O)OCCCCCCCCCCc3c(C)c(O)c(OC)c(OC)c3O)c(C)n(C(=O)c3ccc(Cl)cc3)c2c1 [compound b]						significantly enhances the killing effect of cisplatin	significantly inhibit cisplatin from damaging normal intestinal mucosa cells
